Earlier results in article PMC2613028, “Discovery of a Non-Peptidic Inhibitor of West Nile Virus NS3 Protease by High-Throughput Docking” (PLoS Neglected Tropical Diseases, 2009).
Read-outs that look alike come from different tables or passages of the source.

Test system: WNV protease
Design: method as in PMID 17064076
Conditions: peptide aldehyde inhibitors

benzoyl-norleucine-lysine-arginine-arginine-aldehyde [Bz-Nle-Lys-Arg-Arg-H]
IC50: 4.1 µM | IC50 (listed as Bz-nKRR-H): 4 µM
